Laboratory results from ChEMBL document CHEMBL1201862, “PubChem BioAssay data set” (2004).
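48-hour exposure; five concentrations; linearly interpolated endpoints. At the GI50, growth is halved.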 The source made the active and inactive calls. Cut-off read from the data, not from the text of the source: active = GI50 up to about 1.1 µM and inactive = higher.

How the values were obtained:
Assay in all cases: inhibition of tumour cell growth, NCI panel, 48 h
MDA-N = test system: MDA-N
NCI/ADR-RES = test system: NCI/ADR-RES
SNB-19 = test system: SNB-19
TK-10 = test system: TK-10
RPMI-8226 = test system: RPMI-8226
BT-549 = test system: BT-549
HCC 2998 = test system: HCC 2998
CCRF-CEM = test system: CCRF-CEM
LOX IMVI = test system: LOX IMVI
HL-60 = test system: HL-60
NCI-H23 = test system: NCI-H23
RXF 393 = test system: RXF 393
DU-145 = test system: DU-145
Hs-578T = test system: Hs-578T
MDA-MB-231 = test system: MDA-MB-231
UACC-62 = test system: UACC-62
OVCAR-4 = test system: OVCAR-4
SK-OV-3 = test system: SK-OV-3
IGROV-1 = test system: IGROV-1
786-0 = test system: 786-0
U-251 = test system: U-251
UO-31 = test system: UO-31
HOP-62 = test system: HOP-62
HOP-92 = test system: HOP-92
UACC-257 = test system: UACC-257
CAKI-1 = test system: CAKI-1
SF-268 = test system: SF-268
K562 = test system: K562
OVCAR-8 = test system: OVCAR-8
HT-29 = test system: HT-29
MOLT-4 = test system: MOLT-4
SK-MEL-28 = test system: SK-MEL-28
HCT-15 = test system: HCT-15
NCI-H226 = test system: NCI-H226
SK-MEL-2 = test system: SK-MEL-2
NCI-H460 = test system: NCI-H460
KM12 = test system: KM12
PC-3 = test system: PC-3
SF-295 = test system: SF-295
COLO 205 = test system: COLO 205
MDA-MB-435 = test system: MDA-MB-435
T47D = test system: T47D
SK-MEL-5 = test system: SK-MEL-5
OVCAR-5 = test system: OVCAR-5
EKVX = test system: EKVX
SNB-75 = test system: SNB-75
ACHN = test system: ACHN
SF-539 = test system: SF-539
HCT-116 = test system: HCT-116
Malme-3M = test system: Malme-3M
A549 = test system: A549
OVCAR-3 = test system: OVCAR-3
SR = test system: SR
M14 = test system: M14
SW-620 = test system: SW-620
MCF7 = test system: MCF7
A498 = test system: A498
SN12C = test system: SN12C
NCI-H522 = test system: NCI-H522

CC(C)CCCC(C)[C@H]1CC[C@H]2NCCCC[C@]12C (some centres undefined)
GI50 (MDA-N): 1.96 µM (inactive)
GI50 (NCI/ADR-RES): 6.71 µM (inactive)
GI50 (SNB-19): 5.36 µM (inactive)
GI50 (TK-10): 4.28 µM (inactive)
GI50 (RPMI-8226): 1.92 µM (inactive)
GI50 (BT-549): 9.38 µM (inactive)
GI50 (HCC 2998): 1.37 µM (inactive)
GI50 (CCRF-CEM): 1.37 µM (inactive)
GI50 (LOX IMVI): 1.85 µM (inactive)
GI50 (HL-60): 1.93 µM (inactive)
GI50 (NCI-H23): 8.69 µM (inactive)
GI50 (RXF 393): 2.14 µM (inactive)
GI50 (DU-145): 5.56 µM (inactive)
GI50 (Hs-578T): 6.82 µM (inactive)
GI50 (MDA-MB-231): 2.92 µM (inactive)
GI50 (UACC-62): 2.01 µM (inactive)
GI50 (OVCAR-4): 6.58 µM (inactive)
GI50 (SK-OV-3): 14.3 µM (inactive)
GI50 (IGROV-1): 6.19 µM (inactive)
GI50 (786-0): 3.78 µM (inactive)
GI50 (U-251): 2.4 µM (inactive)
GI50 (UO-31): 7.36 µM (inactive)
GI50 (HOP-62): 9.08 µM (inactive)
GI50 (HOP-92): 3.48 µM (inactive)
GI50 (UACC-257): 3.83 µM (inactive)
GI50 (CAKI-1): 7.05 µM (inactive)
GI50 (SF-268): 13.1 µM (inactive)
GI50 (K562): 2.01 µM (inactive)
GI50 (OVCAR-8): 3.03 µM (inactive)
GI50 (HT-29): 2.34 µM (inactive)
GI50 (MOLT-4): 2.28 µM (inactive)
GI50 (SK-MEL-28): 2.37 µM (inactive)
GI50 (HCT-15): 2.43 µM
GI50 (NCI-H226): 9.14 µM (inactive)
GI50 (SK-MEL-2): 2.88 µM (inactive)
GI50 (NCI-H460): 2.02 µM (inactive)
GI50 (KM12): 2.68 µM (inactive)
GI50 (PC-3): 3.07 µM (inactive)
GI50 (SF-295): 2.33 µM (inactive)
GI50 (COLO 205): 1.73 µM (inactive)
GI50 (MDA-MB-435): 2.01 µM (inactive)
GI50 (T47D): 2.77 µM (inactive)
GI50 (SK-MEL-5): 1.6 µM (inactive)
GI50 (OVCAR-5): 2.53 µM (inactive)
GI50 (EKVX): 2.28 µM (inactive)
GI50 (SNB-75): 6.03 µM (inactive)
GI50 (ACHN): 2.07 µM (inactive)
GI50 (SF-539): 5.92 µM (inactive)
GI50 (HCT-116): 3.03 µM (inactive)
GI50 (Malme-3M): 4.61 µM (inactive)
GI50 (A549): 6.64 µM (inactive)
GI50 (OVCAR-3): 11.9 µM (inactive)
GI50 (SR): 2.07 µM (inactive)
GI50 (M14): 2.1 µM (inactive)
GI50 (SW-620): 2.61 µM (inactive)
GI50 (MCF7): 2 µM (inactive)
GI50 (A498): 9.84 µM (inactive)
GI50 (SN12C): 6.24 µM (inactive)

COc1ccc(/C=C(/C#N)C(N)=O)c(OC)c1
GI50 (MDA-N): 19.3 µM (inactive)
GI50 (NCI/ADR-RES): > 100 µM (inactive)
GI50 (SNB-19): > 100 µM (inactive)
GI50 (TK-10): > 100 µM (inactive)
GI50 (RPMI-8226): > 100 µM (inactive)
GI50 (BT-549): > 100 µM (inactive)
GI50 (CCRF-CEM): 26.8 µM (inactive)
GI50 (LOX IMVI): > 100 µM (inactive)
GI50 (HL-60): 34 µM (inactive)
GI50 (NCI-H23): > 100 µM (inactive)
GI50 (RXF 393): > 100 µM (inactive)
GI50 (DU-145): > 100 µM (inactive)
GI50 (Hs-578T): > 100 µM (inactive)
GI50 (MDA-MB-231): > 100 µM (inactive)
GI50 (UACC-62): 42.6 µM (inactive)
GI50 (OVCAR-4): > 100 µM (inactive)
GI50 (SK-OV-3): > 100 µM (inactive)
GI50 (IGROV-1): > 100 µM (inactive)
GI50 (786-0): > 100 µM (inactive)
GI50 (U-251): > 100 µM (inactive)
GI50 (UO-31): 2.15 µM (inactive)
GI50 (HOP-62): > 100 µM (inactive)
GI50 (HOP-92): 36.4 µM (inactive)
GI50 (UACC-257): 89.5 µM (inactive)
GI50 (CAKI-1): > 100 µM (inactive)
GI50 (SF-268): > 100 µM (inactive)
GI50 (K562): 31.8 µM (inactive)
GI50 (OVCAR-8): > 100 µM (inactive)
GI50 (HT-29): > 100 µM (inactive)
GI50 (MOLT-4): > 100 µM (inactive)
GI50 (SK-MEL-28): > 100 µM (inactive)
GI50 (HCT-15): 60.8 µM
GI50 (NCI-H226): > 100 µM (inactive)
GI50 (SK-MEL-2): 50.4 µM (inactive)
GI50 (NCI-H460): > 100 µM (inactive)
GI50 (KM12): > 100 µM (inactive)
GI50 (PC-3): 97.3 µM (inactive)
GI50 (SF-295): 82.8 µM (inactive)
GI50 (COLO 205): > 100 µM (inactive)
GI50 (MDA-MB-435): 23.5 µM (inactive)
GI50 (T47D): > 100 µM (inactive)
GI50 (SK-MEL-5): 50.9 µM (inactive)
GI50 (NCI-H522): > 100 µM (inactive)
GI50 (OVCAR-5): > 100 µM (inactive)
GI50 (EKVX): > 100 µM (inactive)
GI50 (SNB-75): 72.1 µM (inactive)
GI50 (ACHN): > 100 µM (inactive)
GI50 (SF-539): > 100 µM (inactive)
GI50 (HCT-116): 64 µM (inactive)
GI50 (A549): > 100 µM (inactive)
GI50 (OVCAR-3): > 100 µM (inactive)
GI50 (SR): 37.3 µM (inactive)
GI50 (M14): 41.3 µM (inactive)
GI50 (SW-620): 79.3 µM (inactive)
GI50 (MCF7): 44 µM (inactive)
GI50 (A498): 10.8 µM (inactive)
GI50 (SN12C): > 100 µM (inactive)

CN(C)CC[N+](C)(C)[BH2-]C(O)O
GI50 (MDA-N): > 100 µM (inactive)
GI50 (NCI/ADR-RES): > 100 µM (inactive)
GI50 (SNB-19): > 100 µM (inactive)
GI50 (TK-10): > 100 µM (inactive)
GI50 (BT-549): > 100 µM (inactive)
GI50 (HCC 2998): > 100 µM (inactive)
GI50 (CCRF-CEM): > 100 µM (inactive)
GI50 (LOX IMVI): > 100 µM (inactive)
GI50 (HL-60): > 100 µM (inactive)
GI50 (NCI-H23): > 100 µM (inactive)
GI50 (RXF 393): > 100 µM (inactive)
GI50 (DU-145): > 100 µM (inactive)
GI50 (Hs-578T): > 100 µM (inactive)
GI50 (MDA-MB-231): > 100 µM (inactive)
GI50 (UACC-62): > 100 µM (inactive)
GI50 (OVCAR-4): > 100 µM (inactive)
GI50 (IGROV-1): > 100 µM (inactive)
GI50 (786-0): > 100 µM (inactive)
GI50 (U-251): > 100 µM (inactive)
GI50 (UO-31): > 100 µM (inactive)
GI50 (HOP-62): > 100 µM (inactive)
GI50 (HOP-92): > 100 µM (inactive)
GI50 (UACC-257): > 100 µM (inactive)
GI50 (CAKI-1): > 100 µM (inactive)
GI50 (SF-268): > 100 µM (inactive)
GI50 (K562): > 100 µM (inactive)
GI50 (HT-29): > 100 µM (inactive)
GI50 (MOLT-4): > 100 µM (inactive)
GI50 (SK-MEL-28): > 100 µM (inactive)
GI50 (HCT-15): > 100 µM
GI50 (SK-MEL-2): > 100 µM (inactive)
GI50 (NCI-H460): > 100 µM (inactive)
GI50 (KM12): > 100 µM (inactive)
GI50 (PC-3): > 100 µM (inactive)
GI50 (SF-295): > 100 µM (inactive)
GI50 (COLO 205): > 100 µM (inactive)
GI50 (MDA-MB-435): > 100 µM (inactive)
GI50 (T47D): > 100 µM (inactive)
GI50 (SK-MEL-5): > 100 µM (inactive)
GI50 (NCI-H522): > 100 µM (inactive)
GI50 (OVCAR-5): > 100 µM (inactive)
GI50 (EKVX): > 100 µM (inactive)
GI50 (SNB-75): > 100 µM (inactive)
GI50 (ACHN): > 100 µM (inactive)
GI50 (SF-539): > 100 µM (inactive)
GI50 (HCT-116): > 100 µM (inactive)
GI50 (A549): > 100 µM (inactive)
GI50 (OVCAR-3): > 100 µM (inactive)
GI50 (SR): > 100 µM (inactive)
GI50 (M14): > 100 µM (inactive)
GI50 (SW-620): > 100 µM (inactive)
GI50 (MCF7): > 100 µM (inactive)
GI50 (A498): > 100 µM (inactive)
GI50 (SN12C): > 100 µM (inactive)
